The text below walks through data of US20210401931A1, “METHODS AND MATERIALS FOR TREATING CANCER” (Mayo Foundation for Medical Education and Research, priority 2018, published 2021).

Ends that are not written are not given here.

This assay concerns NFκB target genes. Description: Expression of NFκB target genes in PC-3 cells (RNA-seq, RT-qPCR). Conditions: PC-3 cells expressing peptide, TNFα 20 ng/mL, 24 hours. The format is cell-based, human. As to the method:
FIGS. 4A-G. RB globally regulates NFkB transcriptional program in cells. […] (F, G) PC-3 cell were treated with or without palbociclib (5 μM) for 24 hours or PC-3 cells were infected with lentivirus expressing control shRNA or RB-specific shRNA following puromycin selection after 48 hours infection. Cells were harvested for RT-qPCR (F) and ChIP-qPCR (G) analysis of p65 binding at the promotor of PD-L1, GADD45B, NR4A2, and CD83. All data were shown as mean values±SD (n=3). * P<0.05, ** P<0.01, ***P<0.001.
FIGS. 16A-K. Mutual exclusivity of PTEN and MAP3K7 gene deletion in human cancers and CDK4/6 inhibition-mediated blockage of MAP3K7 deficiency-induced death of PTEN-null cells. (A) Genetic alterations of MAP3K7 and PTEN genes in the TCGA prostate cancer dataset. (B) Genetic alterations of MAP3K7 and PTEN genes in lymphoid neoplasm diffuse large B-cell lymphoma, stomach adenocarcinoma, pancreatic cancer, liver cancer, bladder urothelial carcinoma, and lung adenocarcinoma. (C-E) PC-3 cells were infected with lentivirus expressing control or MAP3K7-specific shRNAs. 72 hours after infection, cells were harvested for western blotting (C), cell growth assay (D), and colony formation assay (E). All data were shown as mean values±SD (n=3). ns, not significant, * P<0.05 comparing to the shControl group. (F-H) LNCaP-RF prostate cancer cells were infected with lentivirus expressing control or MAP3K7-specific shRNAs. 72 hours after infection, cells were harvested for western blotting (F), cell growth assay (G), and colony formation assay (H). All data are shown as mean values±SD (n=3). ns, not significant, * P<0.05 comparing to the shControl group. (I-K) PC-3 cells were infected with lentivirus expressing control, MAP3K7 or CHD1-specific shRNAs. 72 hours after infection, cells were treated with DMSO or palbociclib (5 μM). […]
FIGS. 17A-I. Negative regulation of MAP3K7-IKK-NFκB and CHD1-NFκB signaling by RB. […] 72 hours after infection and puromycin selection, cells were injected s.c. into the right flank of NSG mice, and tumor growth was measured for 21 days. […]

Turning to “RL-S249D/T252D: S249/T252 phospho-mimicking R-Linker (RL) peptide: fragment of RB-N containing 21 amino acids surrounding S249/T252, expressed SFB-tagged or by lentivirus (NGDPRDPRRGQNRSARIAKQL; also: expressed SFB-tagged (tag left off))”, the “TNFα-induced expression of NFκB target genes” value is “blocked”.
